Series [1] has as its system mouse primary bone marrow-derived macrophages (BMM). Description: LPS-inducible PGE2, 6-keto PGF1α and TXB2 production from BMM (EIA), specificity. To be noted: 24 h, 0-100 µM. In kind it is cell-based. On the procedure:
The human megakaryocytic cell line MEG-01S was obtained from the American Type Culture Collection. MEG-01S were maintained in the same media as for BMM, supplemented with 1 mM Sodium Pyruvate (Invitrogen).
BMM were seeded overnight at 2 x 10^5 cells/ml in 24 well plates before treatment with compound at either 10 µM or 0.1 - 100 µM for 24 h in the presence or absence of lipopolysaccharide (LPS) from Salmonella Minnesota (Sigma-Aldrich) at a final concentration of 10 ng/ml. MEG-01S were seeded at 2 x 10^5 cells/ml and stimulated with PMA (Phorbol 12-myristate 13-acetate) (Sigma-Aldrich) at a final concentration of 0.1 µM for 16 h.

Another series concerns BMM. The experiment in a line: BMM cell viability by MTT assay. The format is cell-based, mouse. Particulars: 10, 30, 100 µM, LPS, 24 h (Figure 1B). As for the experimental part: (§1) All bone marrow-derived macrophages (BMM) were obtained by culturing bone marrow cells from the femurs of 6 to 8 week old C57BL/6 male mice in RPMI 1640 medium (Invitrogen Life Technologies, Carlsbad, CA, USA) supplemented with 10 % Fetal calf serum (Invitrogen) 20 U/ml penicillin and 20 µg/ml streptomycin (Invitrogen), 2 mM L-glutamine (Glutamax-1, Invitrogen) in the presence of 10^4 U/ml (100 ng/mL) recombinant human CSF-1 (a gift from Chiron, Emeryville, CA) on bacteriological plastic plates for 7 days. The human megakaryocytic cell line MEG-01S was obtained from the American Type Culture Collection. MEG-01S were maintained in the same media as for BMM, supplemented with 1 mM Sodium Pyruvate (Invitrogen).
Known inhibitors 1 and 2, along with compound 3, were used to treat BMM at three doses (10, 30, 100 µM) in the presence of LPS for 24 h and cell viability was measured by MTT assay. BMM were seeded at 1 x 10^5 cells/well in 96 well plates and treated for 24 h with LPS (10 ng/ml) and compounds at 10, 30 and 100 µM. MEG-01S were PMA differentiated overnight before compounds were added for a further 24 h at 10, 30 and 100 µM. Cell viability was measured by MTT (Sigma-Aldrich) assay as described previously (Irvine, FASEB J, 2006).
In general terms: Tetrazolium dyes change colour on reduction, which living cells bring about.

The subject of series [2] is MEG-01S human megakaryocytes. The experiment in a line: A23187-inducible PGD2 production in PMA-differentiated MEG-01S (EIA). The format is cell-based. To be noted: at 100 µM (Figure 3A). On the procedure:
as §1
BMM were seeded overnight at 2 x 10^5 cells/ml in 24 well plates before treatment with compound at either 10 µM or 0.1 - 100 µM for 24 h in the presence or absence of lipopolysaccharide (LPS) from Salmonella Minnesota (Sigma-Aldrich) at a final concentration of 10 ng/ml. […] Supernatants were collected and samples were analysed for PGD2 using Prostaglandin D2 Mox Express EIA kits, PGE2 using Prostaglandin E2 Express EIA kits, the prostacyclin derivative 6-keto PGF1α using the 6-keto Prostaglandin F1α EIA Kit and the Thromboxane A2 derivative TXB2 using the Thromboxane B2 Express EIA kit (Cayman Chemical) according to the manufacturer's instructions. […]

Another series has as its system MEG-01S. Description: MEG-01S cell viability by MTT assay. The format is cell-based, human. To be noted: 24 h treatment, 0-100 µM (Figure 3B). As for the experimental part: as §1
Known inhibitors 1 and 2, along with compound 3, were used to treat BMM at three doses (10, 30, 100 µM) in the presence of LPS for 24 h and cell viability was measured by MTT assay. BMM were seeded at 1 x 10^5 cells/well in 96 well plates and treated for 24 h with LPS (10 ng/ml) and compounds at 10, 30 and 100 µM. […] Cell viability was measured by MTT (Sigma-Aldrich) assay as described previously (Irvine, FASEB J, 2006).
The effect of the compounds on MEG-01S cell viability was measured by MTT assay after 24 h treatment across the concentration range 0 - 100 µM of compounds (Figure 3B). […]

For the next series, the target named is T1, H-PGDS (Homo sapiens, UniProt O60760).
T1 construct: made in house; host or cells: Escherichia coli BL21 DE3
T1 sequence (O60760 whole entry): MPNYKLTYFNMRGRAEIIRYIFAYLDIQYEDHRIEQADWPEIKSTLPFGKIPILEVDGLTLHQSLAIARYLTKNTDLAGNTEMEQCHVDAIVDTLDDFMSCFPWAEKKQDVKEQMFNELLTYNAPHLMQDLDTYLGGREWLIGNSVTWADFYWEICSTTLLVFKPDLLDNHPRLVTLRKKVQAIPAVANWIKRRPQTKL
Description: H-PGDS catalyzed conjugation of GSH and CDNB, enzyme inhibition assay. To be noted: for inhibition at 50 µM / I[50]: percent inhibition at 50 µM, Mean ± Standard Error of triplicate experiments; for inhibition at 50 µM: read-out: I[50]; for IC50: IC50 ± Standard Error of the Mean, triplicate experiments. In kind it is biochemical. On the procedure: H-PGDS was expressed and purified as described previously (Jowsey, 2001). Briefly, H-PGDS was expressed in Escherichia coli strain BL21 DE3 transformed with the pET17b HPGDS expression construct, grown overnight at 37 °C in 250 ml of Luria-Bertani medium supplemented with 100 µg/ml ampicillin. After 24 h, without induction, bacteria were harvested by centrifugation at 5000 g for 20 min at 4 °C; cell pellets were kept at -70 °C until required. Cells were resuspended in 25 ml of ice-cold phosphate buffered saline (PBS), pH 7.4, containing 1 mM DTT, 0.5 % Triton X-100 and EDTA-free protease inhibitor tablets (F.Hoffmann-La Roche, Dee Why, NSW, Australia), and incubated with rotation for 30 mins at 4 °C. Cells were then lysed by sonication at 90-100 W over 3 x 1 min intervals, while incubated on ice; the lysate clarified by centrifugation at 18000 g for 10 min at 4 °C.
The supernatant was then applied to a GSTPrep FF 16/10 column pre-equilibrated with PBS, pH 7.4, and 1 mM DTT, at 0.4 ml/minute using an AKTA explorer 100 (GE Healthcare, Rydalmere, NSW, Australia), then washed with 5 column volumes of the same buffer at 1 ml/min. Bound H-PGDS was eluted in 5 column volumes of 15 mM reduced glutathione in 50 mM Tris, pH 9.0, at 0.5 ml/min, and dialysed against 100 volumes of 5 mM TrisCl, pH 8.0. The protein was concentrated to 20 mg/ml, as determined by the method of Bradford (Bradford, 1976) using an Amicon Ultra-4 centrifugal filter device (Millipore, North Ryde, NSW, Australia) following manufacturers recommendations. Glycerol was added to a final concentration of 10 % (v/v) prior to storage at -20 °C.
The H-PGDS catalyzed conjugation of GSH and 1-chloro-2,4-dinitrobenzene (CDNB) was used as the biochemical assay for enzyme inhibition. Reactions were performed in 96 well plate format, and product formation was followed at A340 nm over a 10 min internal at 25 °C using a POWERWAVE XS microplate scanning spectrophotometer (Bio-Tek Instruments, Winooski, VT, USA). Reactions were performed in 0.1 M Tris HCl, pH 8.0 containing 2 mM MgCl2, 1 mM CDNB, 2 mM GSH, 2.5 ng/µl purified H-PGDS and 10 % (v/v) ethanol in a 200 µl reaction volume. IC50 values were calculated from rates of conjugation activity determined at eight concentration points bracketing the IC50, where compound solubility allowed, and were corrected for background activity at the same solvent concentrations. All compounds were made up in 100 % DMSO and diluted with 0.1 M Tris HCl, pH 8.0 with 2 mM MgCl2. I50 and IC50 values were determined at a final DMSO composition of no greater than 4 % v/v for all compounds. Non-linear regression analysis and IC50 calculations were performed using GraphPad Prism version 4.0c.
IC50 values were calculated from triplicate experiments, and are presented as IC50 ± Standard Error of the Mean.

As to `c1ccc(C(OC2CCN(CCCc3nn[nH]n3)CC2)c2ccccc2)cc1` [Compound 1, reference compound], in series [1], the “differential effect in inhibition of PGD2 versus PGE2, 6-keto PGF1α or TXB2 (selectivity)” value is listed as “no differential effect”. Besides, the BMM cell viability result in the series on BMM is recorded as “modest but significant effects”. In series [2], the “A23187-inducible PGD2 production” value is listed as “very modest activity”. Further, in the series on MEG-01S, the MEG-01S cell viability result is “little effect”.

For `O=C(NC(c1ccccc1)c1ccccc1)c1ccc(-c2cccs2)nc1` [Compound 4, N-benzhydryl-6-(thiophen-2-yl)nicotinamide], the inhibition at 50 µM at H-PGDS is 28.5%.

Regarding `O=C(NCc1ccccc1)c1ccc(-c2cccs2)nc1` [Compound 5, N-benzyl-6-(thiophen-2-yl)nicotinamide], on H-PGDS, the IC50 was found to be 0.597 ± 1.2 µM and the inhibition at 50 µM was 99.5 ± 0.8%.

Turning to `O=C(c1ccc(-c2cccs2)nc1)N1CCc2ccccc2C1` [Compound 6, (3,4-dihydroisoquinolin-2(1H)-yl)(6-(thiophen-2-yl)pyridin-3-yl)methanone], the inhibition at 50 µM at H-PGDS is 72.3 ± 1.5%.

Consider `O=C(c1ccc(-c2cccs2)nc1)N1CCC2(CCc3ccccc32)CC1` [Compound 7, (2,3-dihydrospiro[indene-1,4'-piperidin]-1'-yl)(6-(thiophen-2-yl)pyridin-3-yl)methanone], for which, at H-PGDS, half-maximal inhibition (IC50) required 1.97 ± 1.2 µM and the inhibition at 50 µM stood at 91 ± 0.1%.

With `CC(=O)C1(c2ccccc2)CCN(C(=O)c2ccc(-c3cccs3)nc2)CC1` [Compound 8, 1-(4-phenyl-1-(6-(thiophen-2-yl)nicotinoyl)piperidin-4-yl)ethanone], the inhibition at 50 µM on H-PGDS came to 58.7 ± 0.8%.

For `O=C(O)c1ccc(CNC(=O)c2ccc(-c3cccs3)nc2)cc1` [Compound 9, 4-((6-(thiophen-2-yl)nicotinamido)methyl)benzoic acid], at H-PGDS, half-maximal inhibition (IC50) was put at 0.66 ± 1.1 µM and the inhibition at 50 µM stood at 98.3 ± 1.1%.

Regarding `CS(=O)(=O)N1CC2(CCN(C(=O)c3ccc(-c4cccs4)nc3)CC2)c2ccccc21` [Compound 10, (1-(methylsulfonyl)spiro[indoline-3,4'-piperidin]-1'-yl)(6-(thiophen-2-yl)pyridin-3-yl)methanone], at H-PGDS, 1.23 ± 1.1 µM corresponded to half-maximal inhibition (IC50) and the inhibition at 50 µM was determined as 90.4 ± 0.5%.

Regarding `O=C(c1ccc(-c2cccs2)nc1)N1CCC(n2c(=O)[nH]c3ccccc32)CC1` [Compound 11, 1-(1-(6-(thiophen-2-yl)nicotinoyl)piperidin-4-yl)-1H-benzo[d]imidazol-2(3H)-one], at H-PGDS, the IC50 worked out at 1.22 ± 1.4 µM and the inhibition at 50 µM was determined as 90.4 ± 0.7%.

Regarding `C[C@H](NC(=O)c1ccc(-c2cccs2)nc1)c1ccc2ccccc2c1` [Compound 12, (S)-N-(1-(naphthalen-2-yl)ethyl)-6-(thiophen-2-yl)nicotinamide], on H-PGDS, 0.086 µM corresponded to half-maximal inhibition (IC50) and the inhibition at 50 µM came to 99.8 ± 0.3%.

Take `O=C(c1ccc(-c2cccs2)nc1)N1CCC(N2C(=O)OCc3ccccc32)CC1` [Compound 13, 1-(1-(6-(thiophen-2-yl)nicotinoyl)piperidin-4-yl)-1H-benzo[d][1,3]oxazin-2(4H)-one]: on H-PGDS, inhibition was half-maximal at 3.4 ± 1.4 µM (IC50) and the “I[50]” value was 87.9 ± 1.1%.

For the compound `NC(=O)[C@H](Cc1ccccc1)NC(=O)c1ccc(-c2ccc(C=O)s2)nc1` [Compound 14], on H-PGDS, the midpoint of inhibition, the IC50, lay at 1.7 ± 1.8 µM and the inhibition at 50 µM was 83.4 ± 1.5%.

As for `NC(=O)[C@H](Cc1ccccc1)NC(=O)c1ccc(-c2ccc(C(=O)O)s2)nc1` [Compound 15], the “I[50]” value at H-PGDS was found to be 19.4 ± 1.4%.

`NC(=O)[C@H](Cc1ccccc1)NC(=O)c1ccc(-c2ccc(Cl)s2)nc1` [Compound 16]: at H-PGDS, half-maximal inhibition (IC50) was put at 1.4 ± 1.3 µM and the inhibition at 50 µM is 89.4 ± 4.7%.

For the compound `Cc1ccc(-c2ccc(C(=O)N[C@@H](Cc3ccccc3)C(N)=O)cn2)s1` [Compound 17], at H-PGDS, the IC50 was 2 ± 1.1 µM and the inhibition at 50 µM was determined as 95 ± 1.1%.

Regarding `CC(=O)c1ccc(-c2ccc(C(=O)N[C@@H](Cc3ccccc3)C(N)=O)cn2)s1` [Compound 18], at H-PGDS, the IC50 stood at 5.1 ± 1.1 µM and the inhibition at 50 µM was 65.5 ± 7.7%.

`NC(=O)[C@H](Cc1ccccc1)NC(=O)c1ccc(-c2sccc2Cl)nc1` [Compound 19]: at H-PGDS, the IC50 turned out to be 3.2 ± 1.6 µM and the inhibition at 50 µM worked out at 94.8 ± 2.4%.

For the compound `N#Cc1ccc(-c2ccc(C(=O)N[C@@H](Cc3ccccc3)C(N)=O)cn2)s1` [Compound 20], the “I[50]” value on H-PGDS is listed as 67.9 ± 1.6%.

Consider `Cc1csc(-c2ccc(C(=O)N[C@@H](Cc3ccccc3)C(N)=O)cn2)c1` [Compound 21], for which, at H-PGDS, half-maximal inhibition (IC50) required 0.38 ± 1.1 µM and the inhibition at 50 µM is 97.4 ± 0.8%.

Regarding `Cc1cc(-c2ccc(C(=O)N[C@@H](Cc3ccccc3)C(N)=O)cn2)sc1C#N` [Compound 22], on H-PGDS, the “I[50]” value amounted to 34.6 ± 2.1%.

For the compound `Cc1ccsc1-c1ccc(C(=O)N[C@@H](Cc2ccccc2)C(N)=O)cn1` [Compound 23], on H-PGDS, the midpoint of inhibition, the IC50, lay at 1.87 ± 1.1 µM and the inhibition at 50 µM was determined as 91.6 ± 0.8%.

On to `CC(NC(=O)C(Cc1ccccc1)NC(=O)c1ccc(-c2cccs2)nc1)C(N)=O` (stereo not drawn) [Compound 24], for which, at H-PGDS, half-maximal inhibition (IC50) was put at 0.86 ± 1.2 µM and the inhibition at 50 µM is 94.6 ± 0.3%.

For the compound `Cc1csc(-c2ccc(C(=O)N[C@@H](C)c3ccc4ccccc4c3)cn2)c1` [Compound 25], at H-PGDS, the 50% inhibitory concentration (IC50) was 0.18 µM and the inhibition at 50 µM was 96.9 ± 1%.

The term IC50 denotes the concentration that inhibits the measured activity by half. Low readings indicate higher potency, high ones lower potency.

Values taken from patent EP2576536B1, “HAEMATOPOIETIC-PROSTAGLANDIN D2 SYNTHASE INHIBITORS” (priority 2010, dated 2011).
